Results reported in US7241784B2, “Carboxylic acid derivative and a pharmaceutical composition containing the derivative as active ingredient” (Ono Pharmaceutical Co., Ltd., priority 1998, dated 2007).

Key:
human PPARα = biological target: T1, human PPARα (Homo sapiens, UniProt Q07869); assay: Luciferase assay using human PPARα (Gal4-PPARα LBD chimeric receptor, CV-1 cells); assay type: cell-based; details: PPARα agonistic activity, compound 10 μM, luciferase activity of carbacyclin (10 μM) defined as 1.0, 42 hours
T1 construct: expressed in transfected cells; host or cells: CV-1 cells
T1 sequence (Q07869 167-468): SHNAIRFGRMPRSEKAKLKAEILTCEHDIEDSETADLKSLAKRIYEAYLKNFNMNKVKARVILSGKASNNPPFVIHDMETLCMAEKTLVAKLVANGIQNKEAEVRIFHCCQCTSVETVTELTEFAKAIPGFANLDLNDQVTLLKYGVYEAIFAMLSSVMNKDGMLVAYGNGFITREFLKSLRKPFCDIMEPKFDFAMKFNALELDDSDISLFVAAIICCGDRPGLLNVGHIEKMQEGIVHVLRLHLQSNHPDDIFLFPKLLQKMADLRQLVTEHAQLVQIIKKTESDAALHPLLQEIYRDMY

human PPARγ = biological target: T2, human PPARγ (Homo sapiens, UniProt P37231); assay: Luciferase assay using human PPARγ (Gal4-PPARγ LBD chimeric receptor, CV-1 cells); assay type: cell-based; details: PPARγ agonistic activity, compound 10 μM, luciferase activity of troglitazone (10 μM) defined as 1.0, 42 hours
T2 construct: expressed in transfected cells; host or cells: CV-1 cells
T2 sequence (P37231 204-505): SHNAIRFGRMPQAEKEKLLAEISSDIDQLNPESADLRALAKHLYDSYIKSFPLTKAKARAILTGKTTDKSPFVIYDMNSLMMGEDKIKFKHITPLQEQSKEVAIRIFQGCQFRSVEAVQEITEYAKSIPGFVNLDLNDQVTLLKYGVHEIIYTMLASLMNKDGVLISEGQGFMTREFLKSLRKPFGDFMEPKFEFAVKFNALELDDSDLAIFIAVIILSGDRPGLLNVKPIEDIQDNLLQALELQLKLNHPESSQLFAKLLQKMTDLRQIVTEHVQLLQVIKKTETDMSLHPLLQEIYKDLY

SD rats = assay: Hypocholesterolemic and hypolipidemic effects in SD rats given hypercholesterolemic food; assay type: in vivo; details: male SD rats, oral administration in 0.5% CMC, then hypercholesterolemic food, blood at 9:00 of the next day, 5 rats per group; for TC level: control 154 ± 8; for TG level: control 158 ± 19; for NEFA levle: control 537 ± 69
Source text: Hypocholesterolemic and Hypolipidemic Effects
Male, six-weeks old SD rats (five rats per group) were left to take milled diet and water ad libitum and were acclimatized for 1 week.
At 9:00 on the first day of the experiment (Day 0), blood sampling was done from tail vein. The rats were divided into some groups according to body weight, triglyceride (TG), non-esterified fatty acid (NEFA) and total cholesterol (TC) levels to minimize differences of the parameters among the groups. At 17:00 of the day, the compound of the present invention dissolved in 0.5% aqueous solution of carboxymethylcellulose (CMC) was orally administered, and thereafter, with hypercholesterolemic food (5.5% peanut oil, 1.5% cholesterol and 0.5% cholic acid were mixed with milled CRF-1 diet, Charles River Inc.) was given to the rats.
At 9:00 of the next day, blood sampling was done from tail vein. The lipid levels in blood (TG, NEFA and TC levels) after administration of the compounds of the present invention were measured. There was no significant difference of the food intake between the control group (provided only 0.5% CMC) and the group treated with the compounds of the present invention.

KKAy/Ta mice = assay: Hypoglycemic and hypolipidemic effects in KKAy/Ta mice; assay type: in vivo; details: male KKAy/Ta mice, food mixture containing 0.03% (w/w) compound for two days, 5 mice per group; for TG level on Day 3: control 523 ± 144; for glycemic level on Day 3: control 638 ± 63
Source text: Hypoglycemic and Hypolipidemic Effects
Male, 7-weeks old KKAy/Ta mice weighed from 35 to 40 g (five mice per group) were pre-breaded for approximately one week and acclimatized for three days on milled diet. On the first day of the experiment (Day 0), mice were divided into some groups according to weight, plasma glucose and triglyceride (TG) levels to minimize the differences among groups. From the next day for two days they were given compounds by food mixture containing 0.03% (w/w) of the compound of the present invention or by milled diet only. At 13:00 of the third day, blood samples were collected to measure glucose and TG levels. Additionally, there was no significant difference in the food intake between control group (milled diet only) and compounds-treated group (milled diet containing 0.03% compounds).

In the case of `Cc1oc(-c2ccccc2)nc1CCOCCCCSCC(=O)O` [Example 5 (8), 2-(4-(2-(5-methyl-2-phenyloxazol-4-yl)ethoxy)butylthio)acetic acid], the “Relative Activity to a positive control compound (carbacyclin = 1)” value (from here on “Relative Activity … (carbacyclin = 1)”) (human PPARα) is reported as 2.2 and the “Relative Activity to a positive control compound (troglitazone = 1)” value (from here on “Relative Activity … (troglitazone = 1)”) (human PPARγ) is reported as 2.3.

With `Cc1oc(-c2ccc3c(c2)OCO3)nc1CCOCC#CCSCC(=O)O` [Example 5 (11), 2-(4-(2-(5-methyl-2-(1,3-dioxaindan-5-yl)oxazol-4-yl)ethoxy)-2-butynylthio)acetic acid] the TC level (SD rats) was 91 ± 6 mg/dL, the TG level (SD rats) was 90 ± 14 mg/dL and the NEFA levle (SD rats) was 227 ± 17 μEq/l. The “Relative Activity … (carbacyclin = 1)” value (human PPARα) was 1.7, the “Relative Activity … (troglitazone = 1)” value (human PPARγ) was 2.3 and the “TG level on Day 3” value (KKAy/Ta mice) was 140 ± 75 mg/dL. The “glycemic level on Day 3” value (KKAy/Ta mice) was 306 ± 72 mg/dL.

For `Cc1oc(-c2ccccc2)nc1CCOCC#CCSCC(=O)O` [Example 5 (2), 2-(4-(2-(5-methyl-2-phenyloxazol-4-yl)ethoxy)-2-butynylthio)acetic acid], the “Relative Activity … (carbacyclin = 1)” value (human PPARα) was 2.9 and the “Relative Activity … (troglitazone = 1)” value (human PPARγ) was 2.6.

`Cc1ccc(-c2nc(CCOCC#CCSCC(=O)O)c(C)o2)cc1` [Example 5 (10), 2-(4-(2-(5-methyl-2-(4-methylphenyl)oxazol-4-yl)ethoxy)-2-butynylthio)acetic acid] showed a TC level (SD rats) of 88 ± 6 mg/dL, a TG level (SD rats) of 95 ± 17 mg/dL and an NEFA levle (SD rats) of 334 ± 55 μEq/l. For the same compound, the “Relative Activity … (carbacyclin = 1)” value (human PPARα) was 1.5, the “Relative Activity … (troglitazone = 1)” value (human PPARγ) was 2.7 and the “TG level on Day 3” value (KKAy/Ta mice) was 111 ± 38 mg/dL. For the same compound, the “glycemic level on Day 3” value (KKAy/Ta mice) was 339 ± 74 mg/dL.
